{
  "source": "patent US20240353393A1",
  "about": "“LABEL FREE DRUG AND TISSUE BIOPSY SCREENING/DIAGNOSTIC IN CANCER” (University of Virginia Patent Foundation, priority 2023, published 2024)",
  "type_in_all_cases": "cell-based",
  "key": {"[1]": {"system": "AA prostate cancer cells", "assay": "FLIRR vs intensity-based redox ratio, CoCl2 pretreatment and glucose stimulation"}, "[2]": {"system": "PCa cells", "assay": "FLIRR (NAD(P)H-a2%/FAD-a1%) by FLIM after doxorubicin treatment", "conditions": "as early as 15 mins of treatment, real time, before induction of apoptosis", "excerpt": "The enzyme-bound fractions of NAD (P) H (a2%) and FAD (a1%) and their lifetimes (tm) are used to quantify these metabolic changes, in particular with our novel NAD (P) H-a2%/FAD-a1% FLIM-based redox ratio. The commonly used intensity-based redox ratio [NAD (P) H/FAD], based predominantly on signals driven by mitochondrial OXPHOS is defined as a reduction of this ratio, due to the conversion of fluorescent NAD (P) H to non-fluorescent NAD+ and conversion of non-fluorescent FADH2 to fluorescent FAD. […]\nFLIM instrumentation can include a 3-channel FLIM imaging system of a Zeiss LSM 780 confocal/multiphoton (MP) laser scanning system coupled to the Zeiss inverted epi-fluorescence microscope, which is controlled with the ZEN software (Carl Zeiss, Inc). […] The fluorescence decay per pixel was measured using 3-channel SPC-150 TCSPC board (Becker & Hickl, GmbH) where the SPCM software was used to acquire the FLIM data (v. 8.91). […]\nThe ratio of the bound NAD (P) H to bound FAD, the Fluorescence Lifetime Imaging Redox Ratio (FLIRR), is an optical biomarker to determine a cell's primary metabolic pathway with higher FLIRR values often consistent with a shift towards oxidative phosphorylation and lower values often associated with a shift towards glycolysis."}, "[3]": {"system": "PCa cells", "assay": "Trp-NAD(P)H FRET interaction by FLIM-FRET after doxorubicin treatment", "conditions": "as early as 15 mins of treatment, real time, before induction of apoptosis", "excerpt": "Auto-fluorescent biomarker, tryptophan (Trp), has also been linked to cancer investigations. Trp, an essential amino acid, is a precursor of niacin, which in turn is a precursor of NAD (P) H. Increased Trp catabolismand increased indoleamine 2,3-dioxygenase (IDO) activity in the kynurenine pathway are linked to cancer development and progression. Therefore, probing Trp is clinically relevant. In general, Trp fluorescence intensity and lifetime mainly provide information on the protein composition, protein structure of which they are a part of and changes in overall cellular microenvironment. Trp is therefore used as a marker for protein abundance. […] In FLIM-FRET measurements, FRET events are identified if there is reduction in the donor lifetime, because of quenching of its fluorescence in the presence of the acceptor. […] The efficiency of energy transfer or E % is calculated from the following equation E=1-τm/τ0, where τm is the mean lifetime of Trp in cells and τ0=3.1 ns of unquenched Trp lifetime measured from Trp in solution. […]\nFLIM instrumentation can include a 3-channel FLIM imaging system of a Zeiss LSM 780 confocal/multiphoton (MP) laser scanning system coupled to the Zeiss inverted epi-fluorescence microscope, which is controlled with the ZEN software (Carl Zeiss, Inc). […]"}},
  "data": [
    {"smiles": "[Cl-].[Cl-].[Co+2]", "note": "[CoCl2]", "values": [
      {"measurement": "NADH-a2%/FAD-a1% ratio", "setting": "[1]", "value": "decrease"}
    ]},
    {"smiles": "COc1cccc2c1C(=O)c1c(O)c3c(c(O)c1C2=O)C[C@@](O)(C(=O)CO)C[C@@H]3O[C@H]1C[C@H](N)[C@H](O)[C@H](C)O1", "note": "[doxorubicin]", "values": [
      {"measurement": "FLIRR of metabolic co-enzymes NAD(P)H & FAD", "setting": "[2]", "value": "increase"},
      {"measurement": "Trp-NAD(P)H FRET interactions", "setting": "[3]", "value": "increase"}
    ]}
  ]
}
